Source: patent US20250295732A1, “COMPOSITIONS AND METHODS FOR ACTIVATING INNATE IMMUNITY” (Zoetis Services LLC, priority 2021, published 2025)

What was measured:
Type in all cases: cell-based
[1] = test system: bovine monocyte-derived macrophages; experiment: Phagocytosis of pHrodo green-labeled E. coli bioparticle (IncuCyte); conditions: <4 hr from challenge with E. coli bioparticles (10 μg/mL); after CATH2 24 hr and 3-day rest; vs vehicle
Text: Peripheral blood mononuclear cells (PBMC) were isolated from bovine blood using ficoll gradients. Bovine monocytes were isolated from PBMC using magnetic assisted cell sorting to positively select for CD14+ cells using anti-human CD14 microbeads (Miltenyi Biotec). Purified bovine blood CD14+ monocytes were differentiated into macrophages using an M2-skewing differentiation factor (recombinant bovine M-CSF) over 7 days then exposed to CATH2 or a vehicle control in the presence of bovine casein to mimic aspects of the mammary gland for 24 hr. […] Following the rest period, a subset of vehicle- and CATH2-trained monocyte-derived macrophages were assessed for epigenetic and transcriptomic changes. The remaining cells were challenged with LPS or E. coli bioparticle labeled with pH-sensitive pHrodo green dye and key parameters for macrophage activation/immune response were assessed including glycolytic activity, surface marker expression, gene expression, cytokine production, phagocytosis, reactive nitrogen species production, and miRNA profiling. In brief, E. coli bioparticle labeled with pHrodo-green pH sensitive dye (Invitrogen) were added to monocyte-derived macrophages and phase and green fluorescence was captured over time using the S3 IncuCyte® Live-Cell Analysis System (Essen Bioscience) over a period of 24-hr. […]

[2] = test system: bovine monocyte-derived macrophages; experiment: Flow cytometric surface marker expression after LPS; conditions: 24 hr following LPS after CATH2 removal and 3-day rest; vs vehicle
Text: (§1) Peripheral blood mononuclear cells (PBMC) were isolated from bovine blood using ficoll gradients. Bovine monocytes were isolated from PBMC using magnetic assisted cell sorting to positively select for CD14+ cells using anti-human CD14 microbeads (Miltenyi Biotec). Purified bovine blood CD14+ monocytes were differentiated into macrophages using an M2-skewing differentiation factor (recombinant bovine M-CSF) over 7 days then exposed to CATH2 or a vehicle control in the presence of bovine casein to mimic aspects of the mammary gland for 24 hr. […] Following the rest period, a subset of vehicle- and CATH2-trained monocyte-derived macrophages were assessed for epigenetic and transcriptomic changes. The remaining cells were challenged with LPS or E. coli bioparticle labeled with pH-sensitive pHrodo green dye and key parameters for macrophage activation/immune response were assessed including glycolytic activity, surface marker expression, gene expression, cytokine production, phagocytosis, reactive nitrogen species production, and miRNA profiling.
Expression of surface markers on bovine monocyte-derived macrophages and cells isolated from bovine milk were assessed using flow cytometry. […] Following incubation with live/dead stain and antibodies, labeled cells were washed, and then analyzed on a ZE5 CellAnalyzer (BioRad) for monocyte-derived macrophages and a FACS Canto II (BD) for milk cells. […]

[3] = test system: bovine monocyte-derived macrophages; experiment: LPS-induced cytokine response of CATH2-trained monocyte-derived macrophages (U-Plex MSD); conditions: CATH2 24 hr, removal, 3-day rest, LPS 1 μg/mL 24 hours; vs vehicle
Text: as §1
Cytokine levels in cell culture supernatant (IL-8/CXCL8, IL-6, TNFα, IL-1β, IL-10, IL-12p40) were quantified using customized U-Plex assays (MesoScale Diagnostics, LLC). […] Raw data were analyzed using MSD DISCOVERY BENCHWORK.

RFGRFLRKIRRFRPKVTITIQGSARFG [CATH2, cathelicidin 2 peptide]
Phagocytosis of E. coli bioparticles [1]: enhanced phagocytosis of E. coli bioparticles | Surface marker expression (CD14, CD80, MHC II, CD163) [2]: enhanced expression of multiple surface markers | LPS-induced cytokine production (IL-12p40, IL-6, TNFα, IL-8, IL-1β, IL-10) [3]: enhanced production of both pro- and anti-inflammatory cytokines/chemokines
